Data: ChEMBL document CHEMBL4680122, “Design, synthesis and biological evaluation of new Axl kinase inhibitors containing 1,3,4-oxadiazole acetamide moiety as novel linker” (Eur J Med Chem, 2020)
pIC50: −log10 of the molar value.

How the values were obtained:
HT-29 = assay: Antiproliferative activity against human HT-29 cells measured after 72 hrs by MTT assay; settings: HT-29, 72 h
A549 = assay: cells; settings: Homo sapiens, A549, 72 h
Description: Antiproliferative activity against human A549 cells measured after 72 hrs by MTT assay

PC-3 = assay: cells; settings: Homo sapiens, PC-3, 72 h
Description: Antiproliferative activity against human PC-3 cells measured after 72 hrs by MTT assay

MCF7 = assay: Antiproliferative activity against human MCF7 cells measured after 72 hrs by MTT assay; assay type: functional, cell-based; settings: MCF7, 72 h
[1] = biological target: Tyrosine-protein kinase receptor UFO (Homo sapiens) (UniProt P30530); settings: dose 100.0 nM, time 1.0 hrs
Chain of Tyrosine-protein kinase receptor UFO (Homo sapiens) (P30530 whole entry): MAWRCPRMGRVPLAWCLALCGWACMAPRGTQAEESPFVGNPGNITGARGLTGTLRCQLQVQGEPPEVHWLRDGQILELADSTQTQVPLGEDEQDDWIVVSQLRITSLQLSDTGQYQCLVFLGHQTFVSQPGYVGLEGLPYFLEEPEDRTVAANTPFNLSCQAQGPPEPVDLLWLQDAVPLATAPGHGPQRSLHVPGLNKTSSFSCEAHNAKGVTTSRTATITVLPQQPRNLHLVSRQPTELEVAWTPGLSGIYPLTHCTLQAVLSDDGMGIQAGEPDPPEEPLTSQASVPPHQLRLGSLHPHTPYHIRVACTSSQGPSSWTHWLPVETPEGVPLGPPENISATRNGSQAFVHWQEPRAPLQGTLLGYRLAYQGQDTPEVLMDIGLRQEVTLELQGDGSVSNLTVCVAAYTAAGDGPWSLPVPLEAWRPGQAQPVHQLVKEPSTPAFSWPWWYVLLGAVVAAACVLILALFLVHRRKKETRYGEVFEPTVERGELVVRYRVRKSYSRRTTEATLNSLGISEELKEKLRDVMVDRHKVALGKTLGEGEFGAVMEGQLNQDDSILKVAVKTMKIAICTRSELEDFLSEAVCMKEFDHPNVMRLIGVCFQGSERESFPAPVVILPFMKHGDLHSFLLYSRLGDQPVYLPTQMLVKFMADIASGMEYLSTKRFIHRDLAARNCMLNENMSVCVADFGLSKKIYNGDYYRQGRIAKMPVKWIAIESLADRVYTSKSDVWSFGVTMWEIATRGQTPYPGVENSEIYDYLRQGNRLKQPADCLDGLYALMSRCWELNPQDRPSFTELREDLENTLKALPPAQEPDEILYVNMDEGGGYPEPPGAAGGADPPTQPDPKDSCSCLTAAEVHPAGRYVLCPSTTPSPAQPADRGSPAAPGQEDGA

SMILES	pIC50 (HT-29)	pIC50 (A549)	pIC50 (PC-3)	pIC50 (MCF7)	inhibition [1]
COc1cc2c(Oc3ccc(NC(=O)Cc4ncc(-c5ccc(F)cc5)o4)cc3F)ccnc2cc1OCCCN1CCOCC1	4.86	6.22	5.62	–	–
COc1cc2nccc(Oc3ccc(NC(=O)c4nc(-c5ccc(F)cc5)no4)cc3)c2cc1OC	4.40	4.99	< 4.00	–	–
COc1cc2nccc(Oc3ccc(NC(=O)c4cc(-c5ccc(F)cc5)on4)cc3)c2cc1OC	< 4.00	4.39	4.53	–	–
COc1cc2c(Oc3ccc(NC(=O)C4(c5nnc(-c6ccc(F)cc6)o5)CC4)cc3F)ccnc2cc1OCCCN1CCOCC1	5.03	5.78	4.89	< 4.00	–
COc1cc2c(Oc3ccc(NC(=O)c4nc(-c5ccc(F)cc5)no4)cc3)ccnc2cc1OCCCN1CCC(C)CC1	5.20	6.06	5.98	–	–
COc1cc2nccc(Oc3ccc(NC(=O)C4(C(=O)Nc5ccc(F)cc5)CC4)cc3)c2cc1OC [CABOZANTINIB]	5.34	5.43	5.08	–	–
COc1cc2c(Oc3ccc(NC(=O)c4ncc(-c5ccc(F)cc5)o4)cc3)ccnc2cc1OCCCN1CCC(C)CC1	5.72	6.62	6.14	–	–
COc1cc2c(Oc3ccc(NC(=O)C4(c5nnc(-c6ccc(F)cc6)o5)CC4)cc3F)ccnc2cc1OCCCN1CCN(C)CC1	5.98	6.84	5.78	5.58	–
COc1cc2c(Oc3ccc(NC(=O)C4(c5nnc(-c6ccc(F)cc6)o5)CC4)cc3F)ccnc2cc1OCCCN1CCCC1	6.11	6.82	5.63	6.51	–
COc1cc2nccc(Oc3ccc(NC(=O)c4nnc(-c5ccc(F)cc5)o4)cc3)c2cc1OC	4.28	5.29	< 4.00	–	–
COc1cc2c(Oc3ccc(NC(=O)C(C)(C)c4nnc(-c5ccc(F)cc5)o4)cc3F)ccnc2cc1OCCCN1CCOCC1	5.61	6.56	5.75	5.80	–
COc1cc2c(Oc3ccc(NC(=O)C4(C(=O)Nc5ccc(F)cc5)CC4)cc3F)ccnc2cc1OCCCN1CCOCC1 [FORETINIB]	–	6.68	6.09	5.70	88%
COc1cc2c(Oc3ccc(NC(=O)C(C)c4nnc(-c5ccc(F)cc5)o4)cc3F)ccnc2cc1OCCCN1CCCCC1 (centres undefined)	6.00	7.07	5.90	5.98	–
CCC(C(=O)Nc1ccc(Oc2ccnc3cc(OCCCN4CCCCC4)c(OC)cc23)c(F)c1)c1nnc(-c2ccc(F)cc2)o1 (centres undefined)	5.97	7.04	5.83	6.39	–
CCC(C(=O)Nc1ccc(Oc2ccnc3cc(OCCCN4CCN(C)CC4)c(OC)cc23)c(F)c1)c1nnc(-c2ccc(F)cc2)o1 (centres undefined)	5.81	7.42	6.01	5.65	–
COc1cc2c(Oc3ccc(NC(=O)C(C)c4nnc(-c5ccc(F)cc5)o4)cc3F)ccnc2cc1OCCCN1CCN(C)CC1 (centres undefined)	5.71	7.12	5.77	5.79	–
COc1cc2c(Oc3ccc(NC(=O)C(C)(C)c4nnc(-c5ccc(F)cc5)o4)cc3F)ccnc2cc1OCCCN1CCCCC1	6.06	6.67	5.75	6.33	–
COc1cc2c(Oc3ccc(NC(=O)C(C)c4nnc(-c5ccc(F)cc5)o4)cc3F)ccnc2cc1OCCCN1CCOCC1 (centres undefined)	5.60	7.28	5.93	5.98	–
COc1cc2nccc(Oc3ccc(NC(=O)c4ncc(-c5ccc(F)cc5)o4)cc3)c2cc1OC	< 4.00	5.25	4.66	–	–
COc1cc2c(Oc3ccc(NC(=O)C(C)(C)c4nnc(-c5ccc(F)cc5)o4)cc3F)ccnc2cc1OCCCN1CCCC1	5.99	6.58	5.98	–	–
COc1cc2c(Oc3ccc(NC(=O)C(C)(C)c4nnc(-c5ccc(F)cc5)o4)cc3F)ccnc2cc1OCCCN1CCN(C)CC1	5.97	6.22	5.72	5.61	–
CCC(C(=O)Nc1ccc(Oc2ccnc3cc(OCCCN4CCOCC4)c(OC)cc23)c(F)c1)c1nnc(-c2ccc(F)cc2)o1 (centres undefined)	5.69	7.31	5.60	5.57	–

Continued, values first:

pIC50 (HT-29)	pIC50 (A549)	pIC50 (PC-3)	pIC50 (MCF7)	inhibition [1]	SMILES
5.12	5.81	6.39	–	–	COc1ccc(-c2nnc(CC(=O)Nc3ccc(Oc4ccnc5cc(OCCCN6CCC(C)CC6)c(OC)cc45)c(F)c3)o2)cc1
6.96	6.98	6.27	–	–	COc1cc2c(Oc3ccc(NC(=O)Cc4ncc(-c5ccc(F)cc5)o4)cc3F)ccnc2cc1OCCCN1CCC(C)CC1
5.37	6.99	6.17	–	–	COc1cc2c(Oc3ccc(NC(=O)Cc4nnc(-c5ccc(F)cc5)o4)cc3F)ccnc2cc1OCCCN1CCOCC1
6.35	6.92	5.66	6.13	–	COc1cc2c(Oc3ccc(NC(=O)C4(c5nnc(-c6ccc(F)cc6)o5)CC4)cc3F)ccnc2cc1OCCCN1CCC(C)CC1
5.63	7.04	6.68	–	–	COc1cc2c(Oc3ccc(NC(=O)Cc4nnc(-c5ccc(F)cc5)o4)cc3F)ccnc2cc1OCCCN1CCCC1
6.26	6.92	6.40	6.34	–	CCC(C(=O)Nc1ccc(Oc2ccnc3cc(OCCCN4CCC(C)CC4)c(OC)cc23)c(F)c1)c1nnc(-c2ccc(F)cc2)o1 (centres undefined)
5.10	5.56	5.42	–	–	COc1cc2c(Oc3ccc(NC(=O)c4nnc(-c5ccc(F)cc5)o4)cc3)ccnc2cc1OCCCN1CCC(C)CC1
5.61	6.20	6.44	–	–	COc1cc2c(Oc3ccc(NC(=O)Cc4nnc(-c5ccc(Cl)cc5)o4)cc3F)ccnc2cc1OCCCN1CCC(C)CC1
5.46	7.15	6.39	–	–	COc1cc2c(Oc3ccc(NC(=O)Cc4nnc(-c5ccc(F)cc5)o4)cc3F)ccnc2cc1OCCCN1CCN(C)CC1
5.98	5.98	6.28	–	–	COc1cc2c(Oc3ccc(NC(=O)Cc4ncc(-c5ccc(F)cc5)o4)cc3F)ccnc2cc1OCCCN1CCCCC1
5.38	6.75	6.47	–	–	COc1cc2c(Oc3ccc(NC(=O)Cc4ncc(-c5ccc(F)cc5)o4)cc3F)ccnc2cc1OCCCN1CCCC1
6.23	6.99	6.17	–	–	COc1cc2c(Oc3ccc(NC(=O)Cc4nnc(-c5ccc(Br)cc5)o4)cc3F)ccnc2cc1OCCCN1CCC(C)CC1
5.94	6.97	6.48	–	–	COc1cc2c(Oc3ccc(NC(=O)Cc4nc(-c5ccc(F)cc5)no4)cc3F)ccnc2cc1OCCCN1CCC(C)CC1
6.24	7.11	5.85	5.98	–	CCC(C(=O)Nc1ccc(Oc2ccnc3cc(OCCCN4CCCC4)c(OC)cc23)c(F)c1)c1nnc(-c2ccc(F)cc2)o1 (centres undefined)
5.60	6.60	6.24	–	–	COc1cc2c(Oc3ccc(NC(=O)Cc4ncc(-c5ccc(F)cc5)o4)cc3F)ccnc2cc1OCCCN1CCN(C)CC1
6.09	6.09	6.40	–	–	COc1cc2c(Oc3ccc(NC(=O)Cc4nnc(-c5ccc(F)cc5)o4)cc3F)ccnc2cc1OCCCN1CCCCC1
5.90	7.12	5.97	5.57	–	COc1cc2c(Oc3ccc(NC(=O)C(C)c4nnc(-c5ccc(F)cc5)o4)cc3F)ccnc2cc1OCCCN1CCCC1 (centres undefined)
6.19	6.38	5.83	6.43	–	COc1cc2c(Oc3ccc(NC(=O)C(C)(C)c4nnc(-c5ccc(F)cc5)o4)cc3F)ccnc2cc1OCCCN1CCC(C)CC1
6.62	7.09	6.55	–	–	COc1cc2c(Oc3ccc(NC(=O)Cc4nnc(-c5ccc(F)cc5)o4)cc3F)ccnc2cc1OCCCN1CCC(C)CC1
5.11	6.04	5.33	–	–	COc1cc2c(Oc3ccc(NC(=O)Cc4nnc(-c5ccccc5)o4)cc3F)ccnc2cc1OCCCN1CCC(C)CC1
